Source: the NIST ThermoML archive (doi:10.1016/j.fluid.2010.01.026)
Numbers after ± are expanded uncertainties.

Settings: 293.15 K; 101.33 kPa; Liquid; Vibrating tube method

## CCCCCCCC[n+]1ccn(C)c1.F[P-](F)(F)(F)(F)F [1-octyl-3-methylimidazolium hexafluorophosphate]
  mass density: 1234.55 ± 8.3 kg/m3
